Consider 6 molecules from ChEMBL document CHEMBL1131266, “Synthesis and pharmacological evaluation of new flosulide analogues, synthesized from natural safrole” (1998).

For assay [1], the system named is Rattus norvegicus. In words: Percent inhibition of edema in carrageenan-induced rat paw edema was determined by comparing with vehicle control group when tested on 14 rats at peroral dose of 100 umol/Kg; Not significant. Type of assay: functional. The note with it: po. For orientation: In the carrageenan paw model, swelling and tenderness develop within hours.
Assay [2] concerns Rattus norvegicus. In words: Percent inhibition of pleural inflammation in carrageenan-induced rat model was determined by comparing with vehicle control group when tested on 5 rats at peroral dose of 100 umol/Kg. The following applies: po. Format: functional.
The subject of assay [3] is Rattus norvegicus. In words: Percent inhibition of edema in carrageenan-induced rat paw edema was determined by comparing with vehicle control group when tested on 5 rats at peroral dose of 100 umol/Kg. Type of assay: functional. The note with it: po.
Assay [4] has as its system Rattus norvegicus. Nature of the assay: Percent inhibition of edema in carrageenan-induced rat paw edema was determined by comparing with vehicle control group when tested on 10 rats at peroral dose of 100 umol/Kg. Format: functional. The note with it: po.
The subject of assay [5] is Rattus norvegicus. In words: Percent inhibition of pleural inflammation in carrageenan-induced rat model was determined by comparing with vehicle control group when tested on 10 rats at peroral dose of 100 umol/Kg. The following applies: po. Type of assay: functional.
Assay [6] is filed under the species Rattus norvegicus. In words: animal or person. The following applies: po, read-out: Inhibition.
Description: Percent inhibition of pleural inflammation in carrageenan-induced rat model was determined by comparing with vehicle control group when tested on 8 rats at peroral dose of 100 umol/Kg

For `CNS(=O)(=O)c1cc2c(cc1Cc1ccccc1)OCO2`, the inhibition in vivo at 100 µmol/kg in the assay on Rattus norvegicus [1] stood at 2.7%; in the assay with Rattus norvegicus [2], 46%.

`CS(=O)(=O)Nc1cc2c(cc1Cc1cccc(C(F)(F)F)c1)OCO2`: the inhibition in vivo at 100 µmol/kg in the assay on Rattus norvegicus [2] came out at 24.6%; in the assay with Rattus norvegicus [3], 19.7%.

With `CS(=O)(=O)Nc1cc2c(cc1Cc1ccccc1)OCO2`, the inhibition in vivo at 100 µmol/kg was 21% in the assay with Rattus norvegicus [4] and 43.1% with Rattus norvegicus [2].

Take `O=S(=O)(Nc1ccccc1)c1cc2c(cc1Cc1ccccc1)OCO2`: the inhibition in vivo at 100 µmol/kg is 24.6% in the assay on Rattus norvegicus [2] and 27.2% with Rattus norvegicus [3].

Regarding `COc1ccc2c(c1)c(CC(=O)O)c(C)n2C(=O)c1ccc(Cl)cc1` [INDOMETHACIN], the inhibition in vivo at 100 µmol/kg is 31.7% in the assay on Rattus norvegicus [5] and 85.4% in the assay on Rattus norvegicus [3].

`CS(=O)(=O)Nc1ccc([N+](=O)[O-])cc1Oc1ccccc1` [NIMESULIDE]: the inhibition in vivo at 100 µmol/kg was 61.7% in the assay on Rattus norvegicus [3] and 29.9% in the assay filed under Rattus norvegicus [6].
